In patent US10065972B2, “Bicyclic or tricyclic heterocyclic compound” (MITSUBISHI TANABE PHARMA CORPORATION, priority 2014, dated 2018):

The molecules below were run against human recombinant KAT-II (Homo sapiens (Human), UniProt Q8N5Z0) (assay: KAT-II inhibitory test). Conditions: 3.0 μmol/L kynurenine, 37° C., 1 hr, pH 8.0; kynurenic acid quantified by HPLC.
Assay type: biochemical
Method in brief: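 E. coli-expressed His/MBP-tagged human KAT-II (2.0 ng/μL) incubated with 3.0 μmol/L kynurenine and 10 μmol/L pyridoxal phosphate in Tris-acetate pH 8.0, 1 hr at 37 °C. Reaction stopped with TCA. Kynurenic acid quantified by reversed-phase HPLC with fluorescence detection (ex 354/em 460 nm), duplicate at each concentration.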

Chain of human recombinant KAT-II (Q8N5Z0 30-425): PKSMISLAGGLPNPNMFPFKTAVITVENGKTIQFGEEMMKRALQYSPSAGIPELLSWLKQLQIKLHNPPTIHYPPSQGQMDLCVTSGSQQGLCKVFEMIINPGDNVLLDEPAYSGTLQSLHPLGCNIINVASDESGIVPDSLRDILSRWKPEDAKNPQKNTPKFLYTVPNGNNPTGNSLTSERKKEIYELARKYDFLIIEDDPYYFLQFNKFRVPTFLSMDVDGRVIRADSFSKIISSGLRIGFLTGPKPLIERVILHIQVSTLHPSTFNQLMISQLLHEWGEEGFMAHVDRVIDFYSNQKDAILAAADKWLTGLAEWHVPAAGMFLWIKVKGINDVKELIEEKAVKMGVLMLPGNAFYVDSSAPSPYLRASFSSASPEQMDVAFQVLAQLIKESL

Row | SMILES | IC50 [nM]
1 | CCc1nn(CC)c(=O)c2nc(N3CCC[C@@H]3C(=O)NCc3ccccc3)sc12 [Example 612, (R)-N-benzyl-1-(5,7-diethyl-4-oxo-4,5-dihydro[1,3]thiazolo[4,5-d]pyridazin-2-yl)pyrrolidine-2-carboxamide] | 52
2 | CCc1nc2sc([C@H]3CCCN3C(=O)Oc3ccccc3)nc2c(=O)n1C [Example 28, (R)-2-(5-ethyl-6-methyl-7-oxo-6,7-dihydro[1,3]thiazolo[5,4-d]pyrimidin-2-yl)pyrrolidine-1-carboxylic acid phenyl ester] | 25
3 | O=C(NCc1ccccc1)[C@H]1CCCN1c1nc2c(=O)[nH]c(C(F)(F)F)nc2s1 [Example 536, (R)-N-benzyl-1-(7-oxo-5-trifluoromethyl-6,7-dihydro[1,3]thiazolo[5,4-d]pyrimidin-2-yl)pyrrolidine-2-carboxamide] | 6.9
4 | Cc1nc2sc([C@H]3CCCN3C(=O)N[C@H](C)c3ccccc3)nn2c(=O)c1C [Example 171, (R)-2-(6,7-dimethyl-5-oxo-5H-[1,3,4]thiadiazolo[3,2-a]pyrimidin-2-yl)-N-((R)-1-phenylethyl)pyrrolidine-1-carboxamide] | 1800
5 | O=C(NCc1ccccc1)[C@H]1CCCN1c1nc2c(=O)n(C3CCCC3)cnc2s1 [Example 238, (R)-N-benzyl-1-(6-cyclopentyl-7-oxo-6,7-dihydro-[1,3]thiazolo[5,4-d]pyrimidin-2-yl)pyrrolidine-2-carboxamide] | 16
6 | O=C(Oc1ccccc1)N1CCC[C@@H]1c1nc2c(=O)[nH]c(-c3ccccc3F)cc2s1 [Example 137, (R)-2-[6-(2-fluorophenyl)-4-oxo-4,5-dihydro[1,3]thiazolo[4,5-c]pyridin-2-yl]pyrrolidine-1-carboxylic acid phenyl ester] | 69
7 | CCc1nc2sc(N3CCC[C@@H]3C(=O)NCc3ccc(Cl)cc3Cl)nn2c(=O)c1F [Example 688, (R)-N-(2,4-dichlorobenzyl)-1-(7-ethyl-6-fluoro-5-oxo-5H-[1,3,4]thiadiazolo[3,2-a]pyrimidin-2-yl)pyrrolidine-2-carboxamide] | 29
8 | CC(C)c1cc(=O)n2nc([C@H]3CCCN3C(=O)COc3ccccc3)sc2n1 [Example 145, 2-[(R)-1-(2-phenoxyacetyl)pyrrolidin-2-yl]-7-(propan-2-yl)-5H-[1,3,4]thiadiazolo[3,2-a]pyrimidin-5-one] | 1500
9 | CC1(Oc2nc3sc([C@H]4CCCN4C(=O)Oc4ccccc4)nc3c(=O)[nH]2)CC1 [Example 104, (R)-2-[5-(1-methylcyclopropoxy)-7-oxo-6,7-dihydro[1,3]thiazolo[5,4-d]pyrimidin-2-yl]pyrrolidine-1-carboxylic acid phenyl ester] | 73
10 | Cc1cc(=O)n2nc(N3C[C@@H]4C[C@@H]4[C@@H]3C(=O)NCc3ccccc3)sc2n1 (racemic) [Example 661, (1SR,2RS,5RS)-N-benzyl-3-(7-methyl-5-oxo-5H-[1,3,4]thiadiazolo[3,2-a]pyrimidin-2-yl)-3-azabicyclo[3.1.0]hexane-2-carboxamide] | 3900
11 | Cc1nc2sc([C@H]3CCCN3C(=O)Nc3csc4ncccc34)nn2c(=O)c1C [Example 175, (R)-2-(6,7-dimethyl-5-oxo-5H-[1,3,4]thiadiazolo[3,2-a]pyrimidin-2-yl)-N-(thieno[2,3-b]pyridin-3-yl)-pyrrolidine-1-carboxamide] | 3700
12 | CCc1nc2ccc(N3CCC[C@@H]3C(=O)NCc3ccccc3)nc2c(=O)n1C [Example 703, (R)-N-benzyl-1-(2-ethyl-3-methyl-4-oxo-3,4-dihydropyrido[3,2-d]pyrimidin-6-yl)pyrrolidine-2-carboxamide] | 110
13 | O=C(NCc1ccccc1)[C@H]1CCCN1c1nc2c(=O)[nH]cc(C(F)(F)F)c2s1 [Example 617, (R)-N-benzyl-1-(4-oxo-7-trifluoromethyl-4,5-dihydro[1,3]thiazolo[4,5-c]pyridin-2-yl)pyrrolidine-2-carboxamide] | 240
14 | COCCn1c(C(F)F)nc2sc(N3CCC[C@@H]3C(=O)NCc3ccccc3)nc2c1=O [Example 191, (R)-N-benzyl-1-[5-difluoromethyl-6-(2-methoxy-ethyl)-7-oxo-6,7-dihydro-[1,3]thiazolo[5,4-d]pyrimidin-2-yl]pyrrolidine-2-carboxamide] | 31
15 | CCn1c(C(F)F)nc2sc(N3CCC[C@@H]3C(=O)NCc3ccco3)nc2c1=O [Example 307, (R)-1-(5-difluoromethyl-6-ethyl-7-oxo-6,7-dihydro-[1,3]thiazolo[5,4-d]pyrimidin-2-yl)-N-[(furan-2-yl)methyl]pyrrolidine-2-carboxamide] | 120
16 | CC(C)c1cc(=O)n2nc([C@H]3CCCN3C(=O)NC3(c4ccccc4)CC3)sc2n1 [Example 167, (R)-N-(1-phenylcyclopropyl)-2-[5-oxo-7-(propan-2-yl)-5H-[1,3,4]thiadiazolo[3,2-a]pyrimidin-2-yl]pyrrolidine-1-carboxamide] | 90
17 | Cc1cc(F)c(-c2nc3sc(N4CCC[C@@H]4C(=O)NCc4ccccc4)nc3c(=O)[nH]2)s1 [Example 501, (R)-N-benzyl-1-[5-(3-fluoro-5-methylthiophen-2-yl)-7-oxo-6,7-dihydro[1,3]thiazolo[5,4-d]pyrimidin-2-yl]pyrrolidine-2-carboxamide] | 17
18 | O=C(Oc1ccccc1)N1CCC[C@@H]1c1nc2c(=O)[nH]c(-c3ccccc3)nc2s1 [Example 65, (R)-2-(7-oxo-5-phenyl-6,7-dihydro[1,3]thiazolo[5,4-d]pyrimidin-2-yl)pyrrolidine-1-carboxylic acid phenyl ester] | 25
19 | COC1CN(Cc2nc3sc(N4CCC[C@@H]4C(=O)NCc4ccccc4)nc3c(=O)n2C)C1 [Example 321, (R)-N-benzyl-1-{5-[(3-methoxyazetidin-1-yl)methyl]-6-methyl-7-oxo-6,7-dihydro[1,3]thiazolo[5,4-d]pyrimidin-2-yl}pyrrolidine-2-carboxamide] | 70
20 | CN(C)CCCn1c(C(F)(F)F)nc2sc(N3CCC[C@@H]3C(=O)NCc3ccccc3)nc2c1=O [Example 294, (R)-N-benzyl-1-{6-[3-(N′,N′-dimethylamino)propyl]-7-oxo-5-trifluoromethyl-6,7-dihydro-[1,3]thiazolo[5,4-d]pyrimidin-2-yl}pyrrolidine-2-carboxamide] | 170
21 | O=C(NCc1ccccc1)[C@H]1CCCN1c1nc2c(=O)[nH]c(C(F)(F)CCS(=O)(=O)c3ccccc3)nc2s1 [Example 530, (R)-N-benzyl-1-[5-(3-benzenesulfonyl-1,1-difluoropropyl)-7-oxo-6,7-dihydro-[1,3]thiazolo[5,4-d]pyrimidin-2-yl]pyrrolidine-2-carboxamide] | 19
22 | Cc1cc2c(=O)n3nc(N4CCC[C@@H]4C(=O)NCc4ccccc4)sc3nc2s1 [Example 656, (R)-N-benzyl-1-(6-methyl-8-oxo-8H-[1,3,4]thiadiazolo[3,2-a]thieno[2,3-d]pyrimidin-2-yl)pyrrolidine-2-carboxamide] | 44
23 | COCC1(c2nc3sc([C@H]4CCCN4C(=O)Oc4ccccc4)nc3c(=O)[nH]2)CC1 [Example 96, (R)-2-{5-[1-(methoxymethyl)cyclopropyl]-7-oxo-6,7-dihydro[1,3]thiazolo[5,4-d]pyrimidin-2-yl}pyrrolidine-1-carboxylic acid phenyl ester] | 19
24 | CCn1c(C(F)F)nc2sc(N3CCC[C@@H]3C(=O)N[C@H](COC)c3ccccc3)nc2c1=O [Example 300, (R)-1-(5-difluoromethyl-6-ethyl-7-oxo-6,7-dihydro-[1,3]thiazolo[5,4-d]pyrimidin-2-yl)-N-((S)-2-methoxy-1-phenylethyl)pyrrolidine-2-carboxamide] | 180
25 | C[C@@H](NC(=O)[C@H]1CCCN1c1nc2c(=O)[nH]c(-c3ccc(F)cc3F)nc2s1)c1ccccc1 [Example 499, (R)-1-[5-(2,4-difluorophenyl)-7-oxo-6,7-dihydro[1,3]thiazolo[5,4-d]pyrimidin-2-yl]N-((R)-1-phenylethyl)pyrrolidine-2-carboxamide] | 7.1
26 | Cn1c(-c2ncccc2F)nc2sc(N3CCC[C@@H]3C(=O)NCc3ccccc3)nc2c1=O [Example 298, (R)-N-benzyl-1-[5-(3-fluoropyridin-2-yl)-6-methyl-7-oxo-6,7-dihydro-[1,3]thiazolo[5,4-d]pyrimidin-2-yl]pyrrolidine-2-carboxamide] | 26
27 | Cc1nc2sc([C@H]3CCCN3C(=O)NC(C)(C)c3ccccc3)nn2c(=O)c1C [Example 172, (R)-2-(6,7-dimethyl-5-oxo-5H-[1,3,4]thiadiazolo[3,2-a]pyrimidin-2-yl)-N-(1-methyl-1-phenylethyl)pyrrolidine-1-carboxamide] | 840
28 | O=C(NCc1ccccc1)[C@H]1CCCN1c1nc2c(=O)n(CCO)c(C(F)(F)F)nc2s1 [Example 396, (R)-N-benzyl-1-[6-(2-hydroxyethyl)-7-oxo-5-trifluoromethyl-6,7-dihydro[1,3]thiazolo[5,4-d]pyrimidin-2-yl]pyrrolidine-2-carboxamide] | 76
29 | O=C(NCc1ccccc1)[C@H]1CCCN1c1nc2c(=O)[nH]c(N3CCC[C@H]3C(F)(F)F)nc2s1 [Example 553, (R)-N-benzyl-1-{7-oxo-5-[(S)-2-(trifluoromethyl)pyrrolidin-1-yl]-6,7-dihydro[1,3]thiazolo[5,4-d]pyrimidin-2-yl}pyrrolidine-2-carboxamide] | 43
